Laboratory results as given in patent publication US6251854A, “N-methyl-d-aspartate receptor channel blockers and method for identifying such” (priority 1999, dated 2001).
“Also recorded” adds a separate entry of the source. Structures can show the parent of a compound that is named as a salt. Where two headings read alike, the source gives them in different places. Non-standard residues stand in square brackets, D forms with d. Residues, ends and D or L forms follow the SMILES beside them.

How the values were obtained:
[1] = target: T1, human NR1-NR2A NMDA receptor subunits (Homo sapiens, UniProt Q05586+Q12879); assay: amphibian oocyte current blockade assay (agonist-evoked currents); type: cell-based; settings: for selectivity for NMDA receptor channels: versus non-NMDA glutamate receptors; for potency rank as NMDA blocker (FIG. 1): unacetylated peptides
T1 construct: expressed in transfected cells; host or cells: Xenopus laevis oocytes
Experimental: Briefly, in the amphibian oocyte current blockade assay, human NMDA receptors are expressed in the oocytes. The receptors are stimulated in the cells by NMDA agonists. Agonist-induced current is the control against which current blockade levels achieved by incubating the oocytes with candidate NMDA blockers are measured.
(A) NMDA specific receptor channel blocking peptides ("NMDA blockers") were identified by screening synthetic combinatorial libraries (SCL) (see e.g., the library and peptide synthesis methods described in Ostresh, et al., Meth Enzymol (1996) 267:220-34, incorporated herein by reference) and assaying for blockade of agonist-evoked currents by the human NR1-NR2A NMDA receptor subunits expressed in amphibian (Xenopus laevis) oocytes (see, for example, the assay method described in Ferrer-Monteil and Montal, METHODS:A Companion to Methods in Enzymology (1994) 6:60-68, incorporated herein by reference).
(D) The compounds prepared in part (B) above were examined for activity against human brain NMDA receptors (composed of NR1 and NR2A subunits) expressed in oocytes. Ionic currents were activated by 200 μM L-glutamate (L-GIu) 20 μM glycine (Gly), at a holding potential Vh =[…]. Ba^2+ /flufenamic Ringer solution was supplemented with agonist and compounds of the invention, and blockade activity determined for each compound.
An example of how the assay method is performed follows, with reference to FIG. 5.

[2] = test system: cultured hippocampal neurons; assay: hippocampal neuronal cell death model (NMDA excitotoxicity); type: cell-based, mammalian; settings: neurons exposed to 200 μM NMDA for 20 minutes (FIG. 3)
Description: In addition to approved clinical trials of the inventive compounds in humans, their efficacy can be confirmed in various known animal models for cerebral impairments associated with NMDA receptor pathology, such as the rat ischemia model (e.g., Seif, et al., Eur J Pharmacol (1990) 185:19-24 and Block and Schwara, Neurosci Lett (1996) 208:41-44). Useful in vitro models for testing neuroprotective drug effects in cerebral neuronal cells are also known and include the chick embryo hypoxia model (e.g., Krieglstein, et al., J Pharmacol Meth (1988) 20:39-46) and the mammalian hippocampal neuronal system in which the inventive compounds were tested (e.g., Schinder, et al., supra). These references are each incorporated by reference to illustrate knowledge in the art concerning models of cerebral dysfunction. Those of ordinary skill in the art will be familiar with, or can readily ascertain, other suitable models for use in testing the compounds of the invention.
Testing of the NMDA blockers of the invention in a hippocampal cell model for neurodysfunction (using the method described in Schinder, et al., J Neurosci (1996) 16:6125-33, incorporated herein by reference) yielded surprising results. Specifically, the NMDA blockers of the invention exert a substantial protective effect against cell death induced by exposure of cultured hippocampal neurons to glutamate agonists in the described model of neuronal cell death due to NMDA receptor dysfunction. In this model, neurons exposed to 200 μM NMDA for 20 minutes display extensive death that can be prevented by open channel blockers such as MK-801 or memantine (FIG. 3). This in vitro paradigm of excitotoxicity provides an assay of neuroprotection (see e.g., Schinder et al., supra and Deshpande, et al., Arch Toxicol, 69:384-390).

[3] = target: T2, AMPA-receptor subunit GluR1 (Homo sapiens, UniProt P42261); assay: current blockade at non-NMDA glutamate receptor channels in amphibian oocytes; type: cell-based
T2 construct: expressed in transfected cells; host or cells: amphibian oocytes
Description: FIG. 1 is a bar graph which depicts the extent of current blockade achieved by various peptides of the invention acting on NMDA receptors ("NMDAR", solid bars) and glutamate receptors of the AMPA-receptor subunit GluR1 type ("GluR1", shaded bars) in amphibian oocytes. Each tested peptide is identified by sequence and test number along the bottom axis of the graph. Current blockade is expressed as a function of the extent of current reduction as compared to current produced in control amphibian oocytes.
(B) To examine the specificity of the blockade activity, the activity of the peptides on glutamate receptor channels of the non-NMDA subtype, specifically, the AMPA-receptor subunit GluR1, was tested.

[4] = Table 2, bicyclic compounds, 200 μM L-glutamate 20 μM glycine, Vh = −80 mV, blocked response 1-(Icmpd/Iagonist), read-out: IC50 (μM) Inhibitory Concentrations

T2 sequence (P42261 19-906): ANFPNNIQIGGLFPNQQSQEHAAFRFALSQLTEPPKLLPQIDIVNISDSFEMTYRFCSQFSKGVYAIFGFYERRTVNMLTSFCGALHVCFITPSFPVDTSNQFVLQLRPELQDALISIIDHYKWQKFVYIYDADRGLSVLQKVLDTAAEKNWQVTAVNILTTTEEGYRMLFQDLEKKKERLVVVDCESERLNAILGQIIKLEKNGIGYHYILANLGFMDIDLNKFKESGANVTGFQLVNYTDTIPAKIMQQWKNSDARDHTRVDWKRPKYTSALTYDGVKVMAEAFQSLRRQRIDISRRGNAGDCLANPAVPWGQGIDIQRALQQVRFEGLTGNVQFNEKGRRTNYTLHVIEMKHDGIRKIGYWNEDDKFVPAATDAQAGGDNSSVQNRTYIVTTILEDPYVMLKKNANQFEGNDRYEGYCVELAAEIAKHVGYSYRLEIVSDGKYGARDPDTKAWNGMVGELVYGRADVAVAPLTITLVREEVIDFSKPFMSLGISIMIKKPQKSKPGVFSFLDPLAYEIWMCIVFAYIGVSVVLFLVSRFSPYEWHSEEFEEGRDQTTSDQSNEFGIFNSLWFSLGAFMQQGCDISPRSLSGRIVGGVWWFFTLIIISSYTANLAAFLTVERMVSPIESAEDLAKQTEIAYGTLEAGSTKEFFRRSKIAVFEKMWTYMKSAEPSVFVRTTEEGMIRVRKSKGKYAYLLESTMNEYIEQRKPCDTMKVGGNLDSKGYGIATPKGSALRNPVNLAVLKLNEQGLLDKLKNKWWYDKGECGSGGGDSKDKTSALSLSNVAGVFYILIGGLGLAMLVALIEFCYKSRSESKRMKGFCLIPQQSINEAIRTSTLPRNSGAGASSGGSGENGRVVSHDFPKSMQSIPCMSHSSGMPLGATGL
T1 sequence (Q12879 23-1464, other chains not shown): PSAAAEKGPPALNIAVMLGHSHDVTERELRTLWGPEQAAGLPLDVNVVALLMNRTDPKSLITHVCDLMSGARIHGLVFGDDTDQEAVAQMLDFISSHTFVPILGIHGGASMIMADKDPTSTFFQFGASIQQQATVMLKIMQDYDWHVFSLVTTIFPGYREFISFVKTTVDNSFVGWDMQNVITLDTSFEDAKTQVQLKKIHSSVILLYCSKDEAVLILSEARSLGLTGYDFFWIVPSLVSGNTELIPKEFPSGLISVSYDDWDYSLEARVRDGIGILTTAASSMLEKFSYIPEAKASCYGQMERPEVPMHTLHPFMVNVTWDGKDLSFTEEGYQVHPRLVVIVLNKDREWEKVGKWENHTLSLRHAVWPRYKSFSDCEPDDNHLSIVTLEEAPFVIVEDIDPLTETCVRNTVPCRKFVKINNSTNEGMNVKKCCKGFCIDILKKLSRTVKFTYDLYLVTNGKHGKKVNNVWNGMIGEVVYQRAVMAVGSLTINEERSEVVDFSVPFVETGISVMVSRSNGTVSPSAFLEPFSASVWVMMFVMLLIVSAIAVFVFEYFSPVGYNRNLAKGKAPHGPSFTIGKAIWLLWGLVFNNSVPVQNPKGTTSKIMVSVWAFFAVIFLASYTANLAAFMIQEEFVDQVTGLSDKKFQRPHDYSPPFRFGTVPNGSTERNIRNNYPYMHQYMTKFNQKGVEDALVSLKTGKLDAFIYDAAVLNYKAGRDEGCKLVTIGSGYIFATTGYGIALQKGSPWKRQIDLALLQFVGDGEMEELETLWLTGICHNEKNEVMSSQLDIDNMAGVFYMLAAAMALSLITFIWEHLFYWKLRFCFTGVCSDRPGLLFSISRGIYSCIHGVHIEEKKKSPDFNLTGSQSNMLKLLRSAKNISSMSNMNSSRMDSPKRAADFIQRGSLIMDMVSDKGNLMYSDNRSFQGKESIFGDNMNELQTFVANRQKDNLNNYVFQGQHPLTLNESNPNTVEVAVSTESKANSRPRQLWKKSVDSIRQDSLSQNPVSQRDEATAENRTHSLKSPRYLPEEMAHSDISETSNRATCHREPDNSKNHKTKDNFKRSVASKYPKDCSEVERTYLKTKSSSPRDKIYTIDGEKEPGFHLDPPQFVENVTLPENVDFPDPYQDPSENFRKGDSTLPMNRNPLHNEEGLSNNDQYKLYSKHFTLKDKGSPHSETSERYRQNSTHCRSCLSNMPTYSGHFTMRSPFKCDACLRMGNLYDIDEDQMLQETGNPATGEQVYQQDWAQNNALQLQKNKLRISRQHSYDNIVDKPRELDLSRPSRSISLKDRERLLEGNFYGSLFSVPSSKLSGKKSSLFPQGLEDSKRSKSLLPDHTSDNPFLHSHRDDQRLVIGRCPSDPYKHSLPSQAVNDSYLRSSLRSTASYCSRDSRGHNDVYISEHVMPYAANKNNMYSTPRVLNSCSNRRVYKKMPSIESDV

Work on “2H-3-(4-fluorobenzyl)-7-(but-2-yl)-8-(3-methyl-butyl)diazolidine[1,2-b]dihydroimidazole” yielded an IC50 [1, 4] of 1.2 µM.

“2H-3-(3-guanidinopropyl)-7-(3-guanidinopropyl)-8-(3-methylbutyl)diazolidine[1,2-b]dihydroimidazole” showed an IC50 [1, 4] of 4.2 µM.

In the case of “2H-3-(4-fluorobenzyl)-7-(3-guanidinopropyl)-8-(3-methylbutyl)diazolidine[1,2-b]dihydroimidazole”, the IC50 [1, 4] is reported as 6.1 µM.

N=C(N)NCCC[C@H](NC(=O)[C@H](CCCNC(=N)N)NC(=O)[C@H](CCCNC(=N)N)NC(=O)[C@H](CCCNC(=N)N)NC(=O)[C@H](CCCNC(=N)N)NC(=O)[C@@H](N)CCCNC(=N)N)C(N)=O [RRRRRR] was tested, and the IC50 [1] was 0.5 ± 0.1 µM and the “protection of neurons from excitotoxic cell death” value (from here on “protection of neurons”) [2] was “protected neurons from excitotoxic cell death”.

Work on “2H-3-(4-fluorobenzyl)-7-(t-butyl)-8-(3-methyl-butyl)diazolidine[1,2-b]dihydroimidazole” yielded an IC50 [1, 4] of 2.2 µM.

RRCRWW was tested, and the “selectivity for NMDA receptor channels” value [1] was “selective for NMDA receptor channels”, the “blockade effect on non-NMDA glutamate receptors” value [3] was “no blockade effect” and the “protection of neurons” value [2] was “prevented neuronal cell death”.

For RRRCRW, the “potency rank as NMDA blocker (FIG. 1)” value [1] was “most potent”.

For RRRRW, the “protection of neurons” value [2] was “protected neurons from excitotoxic cell death”.

In the case of “H-RRRRWW-NH2 (C-terminus assumed) [RRRRWW]”, the IC50 [1] is reported as 0.1 µM, the “current blockade at a steady concentration compared with the same concentration of memantine (FIG. 2)” value [1] is reported as “comparable” and the “potency rank as NMDA blocker (FIG. 1)” value [1] is reported as “most potent”. For the same compound, the “selectivity for NMDA receptor channels” value [1] was “selective for NMDA receptor channels”, the “blockade effect on non-NMDA glutamate receptors” value [3] was “no blockade effect” and the “protection of neurons” value [2] was “prevented neuronal cell death”.

Work on CC(C)C[C@@H](NC(=O)[C@@H](Cc1ccc(O)cc1)NC(=O)[C@H](N)CCCNC(=N)N)C(=O)N[C@H](Cc1ccccc1)C(=O)N[C@H](CCCNC(=N)N)C(=O)N[C@H](CCCNC(=N)N)C(N)=O [rylfrr] (H-[dR][dY][dL][dF][dR][dR]-NH2) yielded an IC50 [1] of 27 ± 4 µM.

“2H-3-(3-guanidinopropyl)-7-(but-2-yl)-8-(3-methyl-butyl)diazolidine[1,2-b]dihydroimidazole” gave an IC50 [1, 4] of 11.8 µM.

For C[C@]12N[C@H](Cc3ccccc31)c1ccccc12 [MK-801, reference compound], the “protection of neurons” value [2] was “prevented”.

In the case of RRRCWW, the “sensitivity of AMPA receptor channels to the peptides (FIG. 1)” value ([3]; set result: weakly sensitive) is reported as “excepting”.

With CC12CC3CC(C)(C1)CC(N)(C3)C2 [memantine, 1-amino-3,5-dimethyladmantane hydrochloride, reference compound] the “protection of neurons” value [2] was “prevented”.

RRRRRW was tested, and the “current blockade at a steady concentration compared with the same concentration of memantine (FIG. 2)” value [1] was “comparable”, the “effect on evoked inward currents upon perfusion (FIG. 5)” value ([1]; 200 μM L-glutamate/20 μM glycine) was “sharply attenuated” and the “increase of blockade efficacy by a C-terminal tryptophan (Ki RRRRRR vs RRRRRW)” value ([1]; compared with RRRRRR (#111)) was 1000 fold. For the same compound, the “potency rank as NMDA blocker (FIG. 1)” value [1] was “most potent”, the “selectivity for NMDA receptor channels” value [1] was “selective for NMDA receptor channels” and the “blockade effect on non-NMDA glutamate receptors” value [3] was “no blockade effect”. The “protection of neurons” value [2] was “prevented neuronal cell death; also recorded: protected neurons from excitotoxic cell death”.
